# Assay results from patent US20100175140A1, “Leucine-rich repeat kinase (LRRK2) drosophila model for parkinson's disease: wildtype1 (WT1) and G2019S mutant flies” (The Johns Hopkins University, priority 2008, published 2010).
# Tested on: ddc-GAL4;G2019S-2 flies
# Assay: Climbing assay (negative geotaxis) of LRRK2-G2019S transgenic flies treated with L-DOPA
# Assay type: in vivo, Drosophila melanogaster
# Conditions: 5 weeks of age, 1 mM L-DOPA for 10 days, P<0.05 vs untreated (FIG. 2E)
# Text: We determined locomotor ability using a climbing assay (negative geotaxis assay) as described previously (23). Cohorts of 60 flies from each genotype were subjected to the assay weekly from 1 week to the time of death. The tested flies were age-matched, randomly selected, anesthetized, and placed in a vertical plastic column (length, 25 cm; diameter, 1.5 cm). After a 30-min recovery from CO2 exposure, flies were gently tapped to the bottom of the column. We counted and calculated the percentage of flies that could climb to or above the median line of the cylinder in 10 seconds. Each week, the assay was repeated three times.
compound,measurement,value
N[C@@H](Cc1ccc(O)c(O)c1)C(=O)O [L-DOPA],locomotor activity (climbing assay),significantly improved
